In one experiment the test system is HeLa. Kind of experiment: Proliferation assay (HeLa cell line).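 Also: crystal violet staining of cell number, scaled between a plate stained before dosing (0%) and cells left untreated (100%), compounds tested at 0.001-10 µM, IC50 via 4-parameter fit.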 As to conditions: Homo sapiens, 96 h, read-out: Biological Assay 2: Proliferation assay (HeLa cell line) median IC50.
The test system of experiment [1] is HeLa human cervical tumor cells. As to the kind of experiment: Proliferation assay (HeLa+Paclitaxel).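 Also: compounds at 0.001-10 µM added 4 h after paclitaxel, 92 h exposure, absorbance normalized to zero-point plate (0%) and untreated cells (100%), IC50 from 4-parameter fit.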 The conditions noted are these: read-out: Biological Assay 3: HeLa + Paclitaxel IC50, 3 nM paclitaxel, crystal violet.
The target in experiment [2] is T1, catalytic domain of human Bub1 (amino acids 704-1085) (Homo sapiens, UniProt O43683).
T1 construct: catalytic domain of human Bub1 (amino acids 704-1085); His6 (N); made in house; host or cells: Hi5 insect cells
T1 sequence (O43683 704-1085): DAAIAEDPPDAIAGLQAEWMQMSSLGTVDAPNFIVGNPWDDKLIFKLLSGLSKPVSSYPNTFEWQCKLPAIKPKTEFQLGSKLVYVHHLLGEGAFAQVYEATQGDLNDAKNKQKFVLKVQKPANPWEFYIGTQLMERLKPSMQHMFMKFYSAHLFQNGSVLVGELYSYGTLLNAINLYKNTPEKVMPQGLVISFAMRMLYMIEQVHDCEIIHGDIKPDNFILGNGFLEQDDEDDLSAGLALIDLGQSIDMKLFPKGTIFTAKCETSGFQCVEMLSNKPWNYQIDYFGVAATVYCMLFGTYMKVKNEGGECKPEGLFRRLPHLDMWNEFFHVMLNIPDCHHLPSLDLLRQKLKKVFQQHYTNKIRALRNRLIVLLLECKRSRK
Kind of experiment: Bub1 kinase assay (TR-FRET). It is filed as biochemical. In outline:
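Compounds from 2 mM DMSO stocks, serially diluted 1:3.4, incubated with enzyme at 22° C for 60 min. Stopped with EDTA, then 1 h with streptavidin-XL665, anti-phosphoserine antibody and Eu-labelled anti-mouse IgG. Phosphorylated biotin-peptide read by TR-FRET; IC50 by 4-parameter logistic fit.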

Where [3] appears, read: Biological Assay 1: Bub1 kinase assay median IC50, 10 μM ATP.
[4] abbreviates: 10 μM ATP, read-out: Biological Assay 1: Bub1 kinase assay median IC50.

Read-outs that look alike come from different tables or passages of the source. Where only a bound is given, the exact number is not on record here.

In the case of `CCOc1cc(F)c(Cn2nc(-c3nc(Nc4ccncc4OC)cc(-c4ccn(C)n4)n3)c3ccccc32)c(F)c1` [Example 2-12-94, 2-[1-(4-ethoxy-2,6-difluorobenzyl)-1H-indazol-3-yl]-N-(3-methoxypyridin-4-yl)-6-(1-methyl-1H-pyrazol-3-yl)pyrimidin-4-amine], the IC50 with HeLa was found to be 3900 nM; in experiment [1], 2300 nM; in experiment [2] (setting [3]) it was 9.7 nM.
Turning to `CCOc1cc(F)c(Cn2nc(-c3nc4c(c(Nc5ccncc5)n3)CN(CC)CC4)c3ccccc32)c(F)c1` [Example 2-15-1, 2-[1-(4-ethoxy-2,6-difluorobenzyl)-1H-indazol-3-yl]-6-ethyl-N-(pyridin-4-yl)-5,6,7,8-tetrahydropyrido[4,3-d]pyrimidin-4-amine], the IC50 with HeLa is over 10000 nM; in experiment [1] it was 69 nM; in experiment [2] (setting [3]) it was 8.6 nM.
On to `CCOc1cc(F)c(Cn2nc(-c3nc(Nc4ccnc(C)n4)cc(C4CCCO4)n3)c3ccccc32)c(F)c1` (racemic) [Example 2-12-87, 2-[1-(4-ethoxy-2,6-difluorobenzyl)-1H-indazol-3-yl]-N-(2-methylpyrimidin-4-yl)-6-[(2rac)-tetrahydrofuran-2-yl]pyrimidin-4-amine], for which the IC50 is 9300 nM in the experiment on HeLa, 1500 nM in experiment [1] and 37 nM in experiment [2] (setting [3]).
With `CCOc1cc(F)c(Cn2nc(-c3nc4c(c(Nc5cc(Cl)ncn5)n3)CCC4)c3ccccc32)c(F)c1` [Example 2-12-32, N-(6-chloropyrimidin-4-yl)-2-[1-(4-ethoxy-2,6-difluorobenzyl)-1H-indazol-3-yl]-6,7-dihydro-5H-cyclopenta[d]pyrimidin-4-amine], the IC50 in the experiment with HeLa is over 10000 nM; in experiment [1], 530 nM; in experiment [2] (setting [3]) it was 330 nM.
Take `COc1cnccc1Nc1nc(-c2nn(Cc3c(F)cc(OCCO)cc3F)c3ccccc23)ncc1C1CC1` [Example 2-6-36, 2-{4-[(3-{5-cyclopropyl-4-[(3-methoxypyridin-4-yl)amino]pyrimidin-2-yl}-1H-indazol-1-yl)methyl]-3,5-difluorophenoxy} ethanol]: the IC50 turned out to be 3400 nM in the experiment with HeLa, 630 nM in experiment [1] and 9.6 nM in experiment [2] (setting [4]).
The matching figures for `CCOc1cc(F)c(Cn2nc(-c3nc4c(c(Nc5ccncc5C(F)(F)F)n3)CCC4)c3ccccc32)c(F)c1` [Example 2-14-3, 2-[1-(4-ethoxy-2,6-difluorobenzyl)-1H-indazol-3-yl]-N-[3-(trifluoromethyl)pyridin-4-yl]-6,7-dihydro-5H-cyclopenta[d]pyrimidin-4-amine]: 3000 nM, 250 nM and 5.2 nM.
`CCOc1cc(F)c(Cn2nc(-c3nc(Nc4ccncn4)cc(C4CCCO4)n3)c3ccccc32)c(F)c1` (racemic) [Example 2-12-86, 2-[1-(4-ethoxy-2,6-difluorobenzyl)-1H-indazol-3-yl]-N-(pyrimidin-4-yl)-6-[(2rac)-tetrahydrofuran-2-yl]pyrimidin-4-amine]: the IC50 came out at 3900 nM with HeLa, 1400 nM in experiment [1] and 7.5 nM in experiment [2] (setting [3]).
In the case of `COc1cnccc1Nc1cc(C)nc(-c2nn(Cc3c(F)cc(OCCO)cc3F)c3ccccc23)n1` [Example 2-6-33, 2-{3,5-difluoro-4-[(3-{4-[(3-methoxypyridin-4-yl)amino]-6-methylpyrimidin-2-yl}-1H-indazol-1-yl)methyl]phenoxy}ethanol], the IC50 was found to be 3500 nM in the experiment with HeLa, 1800 nM in experiment [1] and 5.7 nM in experiment [2] (setting [4]).
In the case of `CCOc1cc(F)c(Cn2nc(-c3nc(Nc4ccncn4)cc(C4CCOCC4)n3)c3ccccc32)c(F)c1` [Example 2-12-92, 2-[1-(4-ethoxy-2,6-difluorobenzyl)-1H-indazol-3-yl]-N-(pyrimidin-4-yl)-6-(tetrahydro-2H-pyran-4-yl)pyrimidin-4-amine], the IC50 in the experiment on HeLa was 2700 nM; in experiment [1], 280 nM; in experiment [2] (setting [3]), 20 nM.
The matching figures for `CCOc1cc(F)c(Cn2nc(-c3nc(Nc4ccncc4OC)cc(C4CCCO4)n3)c3ccccc32)c(F)c1` (racemic) [Example 2-12-88, 2-[1-(4-ethoxy-2,6-difluorobenzyl)-1H-indazol-3-yl]-N-(3-methoxypyridin-4-yl)-6-[(2rac)-tetrahydrofuran-2-yl]pyrimidin-4-amine]: 1200 nM, 200 nM and 5.8 nM.
For `COCCOc1cc(F)c(Cn2nc(-c3nc4c(c(Nc5ccncc5Cl)n3)CCC4)c3ccccc32)c(F)c1` [Example 2-12-30, N-(3-chloropyridin-4-yl)-2-{1-[2,6-difluoro-4-(2-methoxyethoxy)benzyl]-1H-indazol-3-yl}-6,7-dihydro-5H-cyclopenta[d]pyrimidin-4-amine] the same measures were 8600 nM, 140 nM and 60 nM.
The matching figures for `CCOc1cc(F)c(Cn2nc(-c3nc4c(c(Nc5cc(C)nc(C)n5)n3)CCC4)c3ccccc32)c(F)c1` [Example 2-12-27, N-(2,6-dimethylpyrimidin-4-yl)-2-[1-(4-ethoxy-2,6-difluorobenzyl)-1H-indazol-3-yl]-6,7-dihydro-5H-cyclopenta[d]pyrimidin-4-amine]: 3100 nM, 210 nM and 610 nM.
On to `CCOc1cc(F)c(Cn2nc(-c3nc(CN4CCOCC4)cc(Nc4cc(C)nc(C)n4)n3)c3ccccc32)c(F)c1` [Example 2-12-44, N-(2,6-dimethylpyrimidin-4-yl)-2-[1-(4-ethoxy-2,6-difluorobenzyl)-1H-indazol-3-yl]-6-(morpholin-4-ylmethyl)pyrimidin-4-amine], for which the values for the IC50 (in the experiment on HeLa; in experiment [1]; in experiment [2] (setting [3])) were 9600 nM, 89 nM and 320 nM, respectively.
As for `CCOc1cc(F)c(Cn2nc(-c3nc(Nc4ccncn4)cc(-c4nccs4)n3)c3ccccc32)c(F)c1` [Example 2-12-95, 2-[1-(4-ethoxy-2,6-difluorobenzyl)-1H-indazol-3-yl]-N-(pyrimidin-4-yl)-6-(1,3-thiazol-2-yl)pyrimidin-4-amine], the values for the IC50 (with HeLa; in experiment [1]; in experiment [2] (setting [3])) were over 10000 nM, 9800 nM and 26 nM, respectively.
With `CCOc1cc(F)c(Cn2nc(-c3ncc(OCC[S+](C)[O-])c(Nc4ccncc4)n3)c3ccccc32)c(F)c1` (stereo not drawn) [Example 3-2-1, 2-[1-(4-ethoxy-2,6-difluorobenzyl)-1H-indazol-3-yl]-5-[2-(methylsulfinyl)ethoxy]-N-(pyridin-4-yl)pyrimidin-4-amine, reference compound], the values for the IC50 (with HeLa; in experiment [1]) were 4500 nM and 410 nM, respectively.
In the case of `CCOc1cc(F)c(Cn2nc(-c3nc(C)cc(Nc4ccncc4OC(F)(F)F)n3)c3ccccc32)c(F)c1` [Example 2-12-79, 2-[1-(4-ethoxy-2,6-difluorobenzyl)-1H-indazol-3-yl]-6-methyl-N-[3-(trifluoromethoxy)pyr-idin-4-yl]pyrimidin-4-amine], the figures for the IC50 (in the experiment on HeLa; in experiment [1]; in experiment [2] (setting [4])) were over 10000 nM, 1900 nM and 5.6 nM, respectively.
The matching figures for `COc1cnccc1Nc1nc(-c2nn(Cc3c(F)cc(OCCO)cc3F)c3ccccc23)nc(C)c1C` [Example 2-6-31, 2-{3,5-difluoro-4-[(3-{4-[(3-methoxypyridin-4-yl)amino]-5,6-dimethylpyrimidin-2-yl}-1H-indazol-1-yl)methyl]phenoxy}ethanol]: 4900 nM, 760 nM and 6.7 nM.
On to `CCOc1cc(F)c(Cn2nc(-c3ncc(OCCN)c(Nc4ccncc4)n3)c3ccccc32)c(F)c1` [Example 3-4-1, 5-(2-aminoethoxy)-2-[1-(4-ethoxy-2,6-difluorobenzyl)-1H-indazol-3-yl]-N-(pyridin-4-yl)pyrimidin-4-amine, reference compound], for which the IC50 with HeLa was found to be 1400 nM; in experiment [2] (setting [4]) it was 3.4 nM.
`CCOc1cc(F)c(Cn2nc(-c3nc4c(c(Nc5ccnc(S(C)(=O)=O)c5)n3)CCC4)c3ccccc32)c(F)c1` [Example 2-19-6, 2-[1-(4-ethoxy-2,6-difluorobenzyl)-1H-indazol-3-yl]-N-[2-(methylsulfonyl)pyridin-4-yl]-6,7-dihydro-5H-cyclopenta[d]pyrimidin-4-amine]: the figures for the IC50 (in the experiment with HeLa; in experiment [1]) were over 10000 nM and 480 nM, respectively.
For the compound `CCOc1cc(F)c(Cn2nc(-c3ncc(CCNCC(F)(F)F)c(Nc4ccnc(NC(C)=O)c4)n3)c3ccccc32)c(F)c1` [Example 2-20-15, N-{4-[(2-[1-(4-ethoxy-2,6-difluorobenzyl)-1H-indazol-3-yl]-5-{2-[(2,2,2-trifluoroethyl)amino]ethyl}pyrimidin-4-yl)amino]pyridin-2-yl}acetamide], the IC50 in experiment [2] (setting [3]) was 22 nM.
In turn, `CC(=O)Nc1cc(Nc2nc(-c3nn(Cc4c(F)cc(O)cc4F)c4ccccc34)nc3c2CCC3)ccn1` [Example 2-6-7, N-[4-({2-[1-(2,6-difluoro-4-hydroxybenzyl)-1H-indazol-3-yl]-6,7-dihydro-5H-cyclopenta[d]pyrimidin-4-yl}amino)pyridin-2-yl]acetamide] yielded an IC50 in experiment [2] (setting [3]) of 9.3 nM.
In experiment [2] (setting [3]), `CCOc1cc(F)c(Cn2nc(-c3ncc(CCCN4CCOCC4)c(Nc4ccncc4)n3)c3ccccc32)c(F)c1` [Example 2-2-13, 2-[1-(4-ethoxy-2,6-difluorobenzyl)-1H-indazol-3-yl]-5-[3-(morpholin-4-yl)propyl]-N-(pyridin-4-yl)pyrimidin-4-amine] came in with an IC50 of 15 nM.
